pIC50: −log10 of the molar value.
What was measured:
Dog Aorta LOX = Dog Aorta LOX (Canis lupus familiaris, UniProt A0A8I3N9H6); format: biochemical
Experimental: (§1) The measurement of the enzymatic activity of all lysyl oxidase family members was based on the detection of hydrogen peroxide with an Amplex-Red oxidation assay, as previously described; miniaturized in 384 well formats, with the appropriate combination of substrate and assay buffer for each individual enzyme. After a 30 min pre-incubation of the enzyme at 37 °C with the test compound (or with different incubation times for the time-dependency assay), one volume of reaction mixture containing 120 μM Amplex Red (AR) (Life Technologies), 1.5 U/mL horseradish peroxidase (HRP) (Sigma-Aldrich) and the specific substrate was added to each sample. The relative fluorescence units (RFU) were then measured every 2.5 min for 30 min at 37 °C, excitation 565 nm and emission 590, on a BMG Clariostar Microplate Reader. All the substrates were used at concentrations corresponding to their Km towards the corresponding enzyme, or with a range of different concentrations for the substrate competition experiments.
Lysyl oxidases assay buffer contained 1.2 M urea, 50 mM sodium borate buffer, pH 8.2 and 100 µM β-aminoproprionitrile (BAPN, Sigma-Aldrich) was used for low control. […]

Prostanoid EP4 = Prostanoid EP4 (Homo sapiens, UniProt P35408); assay: Eurofins panel 268420; format: binding
Prostanoid EP4, sequence (P35408 whole entry): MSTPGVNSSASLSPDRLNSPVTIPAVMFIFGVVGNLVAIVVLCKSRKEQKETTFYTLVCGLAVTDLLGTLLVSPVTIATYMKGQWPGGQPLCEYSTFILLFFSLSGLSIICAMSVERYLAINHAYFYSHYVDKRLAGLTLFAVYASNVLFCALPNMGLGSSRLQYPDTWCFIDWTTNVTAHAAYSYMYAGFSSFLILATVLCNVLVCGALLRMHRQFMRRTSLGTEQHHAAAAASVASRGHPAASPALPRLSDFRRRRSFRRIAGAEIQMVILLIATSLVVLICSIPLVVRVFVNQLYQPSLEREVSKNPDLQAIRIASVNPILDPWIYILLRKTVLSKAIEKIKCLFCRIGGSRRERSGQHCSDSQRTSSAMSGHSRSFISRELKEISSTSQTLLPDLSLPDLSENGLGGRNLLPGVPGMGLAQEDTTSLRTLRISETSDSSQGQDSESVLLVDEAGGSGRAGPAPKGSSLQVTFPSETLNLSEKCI

LOX = assay: Substrate (putrescine) competition; format: biochemical; parameters: Fig. 2D activity: scale not given here
Description: PXS-4787 competes with a model substrate (putrescine) for the LOX binding site (Fig. 2d). The allylamine of PXS-4787 interacts with the co-factor of the enzyme and elicits mechanism-based inhibition (Fig. 2e). Through careful optimization, and in contrast to BAPN, PXS-4787 selectivity targets lysyl oxidases and is neither an inhibitor of, nor a substrate for, related oxidases (Fig. 2f, g and Supplementary Table S1). Furthermore, PXS-4787 was clean when profiled in a broad panel of macromolecular targets using enzyme and radioligand binding assays (LeadProfilingScreen, Eurofins CEREP Panlabs, 68 assays, test concentration 10 µM; Supplementary Data S1).
Data are expressed as mean ± SEM. Subsequent statistical analysis was performed with unpaired two-sided Student’s t tests. *p < 0.05, **p < 0.01, ***p < 0.001and ****p < 0.0001. Source data are provided as a Source Data file.
as §1

[1] = target: Serotonin (5-Hydroxytryptamine) 5-HT1B (Homo sapiens, UniProt P28222); assay: Eurofins panel 271230; format: binding
Serotonin (5-Hydroxytryptamine) 5-HT1B, sequence (P28222 whole entry): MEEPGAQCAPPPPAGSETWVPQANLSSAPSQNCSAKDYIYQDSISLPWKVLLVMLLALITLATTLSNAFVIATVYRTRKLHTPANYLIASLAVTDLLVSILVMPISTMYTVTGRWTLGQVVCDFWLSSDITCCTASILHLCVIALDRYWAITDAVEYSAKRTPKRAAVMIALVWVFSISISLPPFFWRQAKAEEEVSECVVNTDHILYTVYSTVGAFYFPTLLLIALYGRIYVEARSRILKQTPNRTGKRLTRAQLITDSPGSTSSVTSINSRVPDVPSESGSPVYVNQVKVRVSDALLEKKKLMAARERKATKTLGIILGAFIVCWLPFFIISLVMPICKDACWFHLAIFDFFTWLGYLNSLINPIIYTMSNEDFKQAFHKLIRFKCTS

Dog Aorta LOX, sequence (A0A8I3N9H6 entry or part of it): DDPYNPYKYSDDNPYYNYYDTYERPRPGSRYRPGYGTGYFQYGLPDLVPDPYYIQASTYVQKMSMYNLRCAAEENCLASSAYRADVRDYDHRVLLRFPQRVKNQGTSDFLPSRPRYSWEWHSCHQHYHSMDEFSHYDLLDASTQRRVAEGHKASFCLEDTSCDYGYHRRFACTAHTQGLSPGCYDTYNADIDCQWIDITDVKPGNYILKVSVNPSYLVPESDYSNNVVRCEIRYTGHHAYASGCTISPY

N#CCCN [BAPN, β-aminoproprionitrile, reference compound]
Dog Aorta LOX pIC50±SD (Dog Aorta LOX): 5.7 ± 0.1 | pIC50 (Dog Aorta LOX): 5.67

NC/C=C(\F)CS(=O)(=O)c1ccccc1 [PXS-4787]
inhibition at 10 µM (Prostanoid EP4): -2% | competition with model substrate putrescine for the LOX binding site (LOX): competes | Fig. 2D activity (LOX; 5.65e-10, putrescine 1.1 mM): 89.58 | Fig. 2D activity (LOX; 5.65e-10, putrescine 3.3 mM): 93.22 | Fig. 2D activity (LOX; 5.65e-10, putrescine 10 mM): 98.29 | Fig. 2D activity (LOX; 5.65e-10, putrescine 30 mM): 96.57 | Fig. 2D activity (LOX; 5.65e-10, putrescine 90 mM): 93.38 | Fig. 2D activity (LOX; 1.69e-9, putrescine 1.1 mM): 84.4 | Fig. 2D activity (LOX; 1.69e-9, putrescine 3.3 mM): 94.23 | Fig. 2D activity (LOX; 1.69e-9, putrescine 10 mM): 94.63 | Fig. 2D activity (LOX; 1.69e-9, putrescine 30 mM): 93.67 | Fig. 2D activity (LOX; 1.69e-9, putrescine 90 mM): 92.69 | Fig. 2D activity (LOX; 5.08e-9, putrescine 1.1 mM): 89.54 | Fig. 2D activity (LOX; 5.08e-9, putrescine 3.3 mM): 93.84 | Fig. 2D activity (LOX; 5.08e-9, putrescine 10 mM): 97.41 | Fig. 2D activity (LOX; 5.08e-9, putrescine 30 mM): 96.12 | Fig. 2D activity (LOX; 5.08e-9, putrescine 90 mM): 91.41 | Fig. 2D activity (LOX; 1.52e-8, putrescine 1.1 mM): 91.17 | Fig. 2D activity (LOX; 1.52e-8, putrescine 3.3 mM): 95.49 | Fig. 2D activity (LOX; 1.52e-8, putrescine 10 mM): 93.57 | Fig. 2D activity (LOX; 1.52e-8, putrescine 30 mM): 97.83 | Fig. 2D activity (LOX; 1.52e-8, putrescine 90 mM): 92.34 | Fig. 2D activity (LOX; 4.57e-8, putrescine 1.1 mM): 81.95 | Fig. 2D activity (LOX; 4.57e-8, putrescine 3.3 mM): 93.97 | Fig. 2D activity (LOX; 4.57e-8, putrescine 10 mM): 95.69 | Fig. 2D activity (LOX; 4.57e-8, putrescine 30 mM): 96.71 | Fig. 2D activity (LOX; 4.57e-8, putrescine 90 mM): 93.31 | Fig. 2D activity (LOX; 1.37e-7, putrescine 1.1 mM): 73.72 | Fig. 2D activity (LOX; 1.37e-7, putrescine 3.3 mM): 89.33 | Fig. 2D activity (LOX; 1.37e-7, putrescine 10 mM): 93.77 | Fig. 2D activity (LOX; 1.37e-7, putrescine 30 mM): 94.81 | Fig. 2D activity (LOX; 1.37e-7, putrescine 90 mM): 93.26 | Fig. 2D activity (LOX; 4.12e-7, putrescine 1.1 mM): 60.93 | Fig. 2D activity (LOX; 4.12e-7, putrescine 3.3 mM): 75.9 | Fig. 2D activity (LOX; 4.12e-7, putrescine 10 mM): 89.23 | Fig. 2D activity (LOX; 4.12e-7, putrescine 30 mM): 89.28 | Fig. 2D activity (LOX; 4.12e-7, putrescine 90 mM): 90.74 | Fig. 2D activity (LOX; 1.23e-6, putrescine 1.1 mM): 32.69 | Fig. 2D activity (LOX; 1.23e-6, putrescine 3.3 mM): 47.9 | Fig. 2D activity (LOX; 1.23e-6, putrescine 10 mM): 67.1 | Fig. 2D activity (LOX; 1.23e-6, putrescine 30 mM): 81.21 | Fig. 2D activity (LOX; 1.23e-6, putrescine 90 mM): 86.37 | Fig. 2D activity (LOX; 3.7e-6, putrescine 1.1 mM): 11.17 | Fig. 2D activity (LOX; 3.7e-6, putrescine 3.3 mM): 19.92 | Fig. 2D activity (LOX; 3.7e-6, putrescine 10 mM): 38.7 | Fig. 2D activity (LOX; 3.7e-6, putrescine 30 mM): 60.57 | Fig. 2D activity (LOX; 3.7e-6, putrescine 90 mM): 76.61 | Fig. 2D activity (LOX; 1.11e-5, putrescine 1.1 mM): 3.35 | Fig. 2D activity (LOX; 1.11e-5, putrescine 3.3 mM): 6.43 | Fig. 2D activity (LOX; 1.11e-5, putrescine 10 mM): 14.18 | Fig. 2D activity (LOX; 1.11e-5, putrescine 30 mM): 32.4 | Fig. 2D activity (LOX; 1.11e-5, putrescine 90 mM): 57.08 | Fig. 2D activity (LOX; 3.33e-5, putrescine 1.1 mM): -0.5 | Fig. 2D activity (LOX; 3.33e-5, putrescine 3.3 mM): 1.53 | Fig. 2D activity (LOX; 3.33e-5, putrescine 10 mM): 3.65 | Fig. 2D activity (LOX; 3.33e-5, putrescine 30 mM): 9.04 | Fig. 2D activity (LOX; 3.33e-5, putrescine 90 mM): 24.08 | Fig. 2D activity (LOX; 0.0001, putrescine 1.1 mM): -0.9 | Fig. 2D activity (LOX; 0.0001, putrescine 3.3 mM): -0.36 | Fig. 2D activity (LOX; 0.0001, putrescine 10 mM): 0.174 | Fig. 2D activity (LOX; 0.0001, putrescine 30 mM): 1.46 | Fig. 2D activity (LOX; 0.0001, putrescine 90 mM): 4.82

NC/C=C(\F)C(F)(F)S(=O)(=O)c1ccccc1 [PXS-6302]
inhibition at 30 µM [1]: -3%
